Measured values as given in patent US20060069132A1, “Azolecarboxamide herbicides” (priority 2004, published 2006).
Where two headings read alike, the source gives them in different places.

Legend:
goosegrass = assay: Test C pre-/postemergence herbicide test; assay type: in vivo, Eleusine indica; conditions: for Goosegrass plant response rating: Preemergence
In short: (§1)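 Preemergence: seeds planted and treated with compound in non-phytotoxic solvent with surfactant; postemergence: plants at 2 to 18 cm (1- to 4-leaf stage) sprayed likewise. Kept in greenhouse 12 to 14 days, then visually rated against controls, 0 (no effect) to 100 (complete control).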

barnyardgrass = assay: Test B flooded paddy test; assay type: in vivo, Echinochloa crus-galli; conditions: 1000 g ai/ha, scale 0 to 100 (0 no effect, 100 complete control)
In short: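 Each value is a visual 0–100 response rating taken against controls 13 to 15 days after treatment in the greenhouse. Plants received formulated chemical postemergence at the 1- to 4-leaf stage or, in flooded paddy, at the 2-leaf stage.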

common ragweed = assay: Test C pre-/postemergence herbicide test; assay type: in vivo, Ambrosia elatior; design: key to Plant response rating, Ragweed: 0 = no effect, 100 = complete control
In short: as §1

[1] = tested on: smallflower umbrella sedge; assay: Test C flooded paddy test; assay type: in vivo, Cyperus difformis
yellow nutsedge = assay: Test C pre-/postemergence herbicide test; assay type: in vivo, Cyperus esculentus; conditions: for Nutsedge, Yellow plant response rating: Preemergence, scale 0 to 100, 0 no effect, 100 complete control
In short: as §1

woolly cupgrass = assay: Test C pre-/postemergence herbicide test; assay type: in vivo, Eriochloa villosa
In short: as §1

cocklebur = assay: Test B pre-/postemergence herbicide test; assay type: in vivo, Xanthium strumarium; conditions: for pest or weed control at 125 g/ha / pest or weed control at 500 g/ha: Xanthium strumarium
In short: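 Evaluation is visual, comparing treated with control plants on a scale where 0 means no effect and 100 means full control. Treatments were preemergence, or postemergence on seedlings 2–18 cm tall, and held 13–15 days in the greenhouse.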

rice = assay: Test B pre-/postemergence herbicide test; assay type: in vivo, Oryza sativa; conditions: for Rice plant response rating: Preemergence, scale 0 to 100
In short: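 Species tested were Echinochloa crus-galli, Ipomoea coccinea, Xanthium strumarium and Oryza sativa, treated both before emergence and at the 1- to 4-leaf stage; rice and barnyardgrass were also tested under flooding at 2 leaves. Greenhouse incubation lasted 13–15 days before visual 0–100 scoring.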

[2] = 62 g ai/ha, preemergence, scale 0 to 100
[3] = 125 g ai/ha, scale 0 (no effect) to 100 (complete control), visual, 12 to 14 days, preemergence
[4] = 250 g ai/ha, scale 0-100, preemergence
[5] = 500 g ai/ha, scale 0 to 100 (0 no effect, 100 complete control), visual, 12 to 14 days, preemergence
[6] = 125 g ai/ha, 0 = no effect, 100 = complete control, preemergence
[7] = 500 g ai/ha, visual rating, 0 = no effect, 100 = complete control, preemergence
[8] = 250 g ai/ha, scale 0 to 100 (0 no effect, 100 complete control), visual, 12 to 14 days, preemergence
[9] = 500 g ai/ha, scale 0 to 100, 0 no effect, 100 complete control
[10] = Preemergence, 500 g ai/ha, scale 0 to 100, 0 no effect, 100 complete control
[11] = Postemergence, 500 g ai/ha, visual rating after 13 to 15 days, scale 0 (no effect) to 100 (complete control)
[12] = Preemergence, 500 g ai/ha, scale 0 to 100
[13] = preemergence, 125 g ai/ha, 0 to 100 scale, 0 is no effect, 100 is complete control
[14] = Postemergence, 125 g ai/ha, scale 0 to 100, 0 no effect, 100 complete control
[15] = Postemergence, 250 g ai/ha, scale 0 to 100, 0 no effect, 100 complete control
[16] = postemergence, 62 g ai/ha, scale 0 to 100
[17] = Postemergence, 500 g ai/ha, scale 0 to 100

Compound: CCN(C)C(=O)c1ccc(F)c(NC(=O)C2CC(C(C)(C)C)=NN2CC)c1 (racemic) [Compound 307]
- Plant response rating, Goosegrass (goosegrass; [2]): 90
- Plant response rating, Goosegrass (goosegrass; [3]): 95
- Plant response rating, Goosegrass (goosegrass; [4]): 100
- Plant response rating, Goosegrass (goosegrass; [5]): 100
- Barnyardgrass plant response rating (barnyardgrass): 90
- Plant response rating, Ragweed (common ragweed; [2]): 80
- Plant response rating, Ragweed (common ragweed; [4]): 100
- Plant response rating, Ragweed (common ragweed; [5]): 100
- Sedge, Umbrella plant response rating ([1]; 62 g ai/ha, scale 0 to 100): 40
- Sedge, Umbrella plant response rating ([1]; 125 g ai/ha, scale 0 to 100 (0 no effect, 100 complete control)): 70
- Sedge, Umbrella plant response rating ([1]; 250 g ai/ha, scale of 0 to 100, 0 is no effect, 100 is complete control): 80
- Plant response rating, Sedge, Umbrella ([1]; 500 g ai/ha, visual rating after 12 to 14 days, scale 0 to 100 (0 no effect, 100 complete control)): 85
- Plant response rating, Nutsedge, Yellow (yellow nutsedge; [2]): 5
- Plant response rating, Nutsedge, Yellow (yellow nutsedge; [3]): 20
- Plant response rating, Nutsedge, Yellow (yellow nutsedge; [4]): 50
- Plant response rating, Nutsedge, Yellow (yellow nutsedge; [5]): 50
- Plant response rating, Cupgrass, Woolly (woolly cupgrass; [2]): 5
- Plant response rating, Cupgrass, Woolly (woolly cupgrass; [3]): 40
- Plant response rating, Cupgrass, Woolly (woolly cupgrass; [4]): 70
- Plant response rating, Cupgrass, Woolly (woolly cupgrass; [5]): 85
- Cocklebur plant response rating (0 to 100 scale) (cocklebur; [6]): 80
- Cocklebur plant response rating (cocklebur; 125 g ai/ha, visual rating, scale 0 (no effect) to 100 (complete control), postemergence): 20
- Plant response rating, Cocklebur (cocklebur; [7]): 100
- Cocklebur plant response rating (cocklebur; postemergence, 500 g ai/ha, scale 0 to 100, 0 is no effect, 100 is complete control): 30
- Rice plant response rating (0 to 100 scale) (rice; [6]): 80
- Plant response rating, Rice (rice; [7]): 90

Compound: CCN(C)C(=O)c1cccc(NC(=O)c2cc(C(C)(C)C)nn2CC)c1 [Compound 48]
- Plant response rating (0 = no effect, 100 = complete control), Goosegrass (goosegrass; 62 g ai/ha, preemergence): 20
- Plant response rating, Goosegrass (goosegrass; [3]): 70
- Plant response rating, Goosegrass (goosegrass; [8]): 90
- Goosegrass plant response rating (goosegrass; [9]): 90
- Barnyardgrass plant response rating (barnyardgrass; visual rating, 13 to 15 days): 80
- Plant response rating (0 = no effect, 100 = complete control), Ragweed (common ragweed; 62 g ai/ha, preemergence): 0
- Plant response rating, Ragweed (common ragweed; [3]): 5
- Plant response rating, Ragweed (common ragweed; [8]): 70
- Ragweed plant response rating (common ragweed; [10]): 100
- Sedge, Umbrella plant response rating ([1]; 16 g ai/ha, scale 0 to 100): 0
- Sedge, Umbrella plant response rating ([1]; 31 g ai/ha, scale 0 to 100): 0
- Sedge, Umbrella plant response rating ([1]; 62 g ai/ha, scale 0 to 100 (0 no effect, 100 complete control)): 60
- Sedge, Umbrella plant response rating ([1]; 125 g ai/ha, scale of 0 to 100, 0 is no effect, 100 is complete control): 60
- Plant response rating (0 = no effect, 100 = complete control), Nutsedge, Yellow (yellow nutsedge; 62 g ai/ha, preemergence): 0
- Plant response rating, Nutsedge, Yellow (yellow nutsedge; [3]): 0
- Plant response rating, Nutsedge, Yellow (yellow nutsedge; [8]): 10
- Nutsedge, Yellow plant response rating (yellow nutsedge; 500 g ai/ha): 30
- Plant response rating (0 = no effect, 100 = complete control), Cupgrass, Woolly (woolly cupgrass; 62 g ai/ha, preemergence): 0
- Plant response rating, Cupgrass, Woolly (woolly cupgrass; [3]): 0
- Plant response rating, Cupgrass, Woolly (woolly cupgrass; [8]): 5
- Cupgrass, Woolly plant response rating (woolly cupgrass; [10]): 20
- Cocklebur plant response rating (cocklebur; Postemergence, 125 g ai/ha, scale 0 (no effect) to 100 (complete control)): 0
- Plant response rating, Cocklebur (cocklebur; [11]): 70
- Cocklebur plant response rating (cocklebur; [12]): 50
- Rice plant response rating (rice; 500 g ai/ha): 60
- Plant response rating, Rice (rice; [13]): 10

Compound: C#CCn1nc(C(C)(C)C)cc1C(=O)Nc1cccc(C(=O)NCC)c1 [Compound 50]
- Plant response rating (0 = no effect, 100 = complete control), Goosegrass (goosegrass; 62 g ai/ha, preemergence): 40
- Plant response rating, Goosegrass (goosegrass; [3]): 80
- Plant response rating, Goosegrass (goosegrass; [8]): 100
- Plant response rating, Goosegrass (goosegrass; [14]): 30
- Plant response rating, Goosegrass (goosegrass; [15]): 90
- Goosegrass plant response rating (goosegrass; [9]): 100
- Plant response rating, Goosegrass (goosegrass; [16]): 30
- Barnyardgrass plant response rating (barnyardgrass; visual rating, 13 to 15 days): 70
- Plant response rating (0 = no effect, 100 = complete control), Ragweed (common ragweed; 62 g ai/ha, preemergence): 10
- Plant response rating, Ragweed (common ragweed; [3]): 40
- Plant response rating, Ragweed (common ragweed; [8]): 80
- Ragweed plant response rating (common ragweed; [17]): 85
- Plant response rating, Ragweed (common ragweed; [15]): 85
- Ragweed plant response rating (common ragweed; [10]): 100
- Plant response rating, Ragweed (common ragweed; [16]): 80
- Plant response rating (0 = no effect, 100 = complete control), Nutsedge, Yellow (yellow nutsedge; 62 g ai/ha, preemergence): 0
- Plant response rating, Nutsedge, Yellow (yellow nutsedge; [3]): 10
- Plant response rating, Nutsedge, Yellow (yellow nutsedge; [8]): 40
- Nutsedge, Yellow plant response rating (yellow nutsedge; 500 g ai/ha): 80
- Plant response rating (0 = no effect, 100 = complete control), Cupgrass, Woolly (woolly cupgrass; 62 g ai/ha, preemergence): 0
- Plant response rating, Cupgrass, Woolly (woolly cupgrass; [3]): 10
- Plant response rating, Cupgrass, Woolly (woolly cupgrass; [8]): 30
- Cupgrass, Woolly plant response rating (woolly cupgrass; [17]): 0
- Plant response rating, Cupgrass, Woolly (woolly cupgrass; [14]): 0
- Plant response rating, Cupgrass, Woolly (woolly cupgrass; [15]): 0
- Cupgrass, Woolly plant response rating (woolly cupgrass; [10]): 70
- Plant response rating, Cupgrass, Woolly (woolly cupgrass; [16]): 0
- Plant response rating, Cocklebur (cocklebur; [11]): 90
- Cocklebur plant response rating (cocklebur; [12]): 0
- Cocklebur plant response rating (cocklebur; postemergence, 125 g ai/ha, visual rating, scale 0 (no effect) to 100 (complete control)): 90
- Plant response rating, Cocklebur (cocklebur; [13]): 0
- Rice plant response rating (rice; 500 g ai/ha): 50
- Plant response rating, Rice (rice; [13]): 10

Compound: CCc1nn(C(C)(C)C)cc1C(=O)Nc1cccc(C(=O)N(CC)CC)c1 [Compound 182, N-[3-[(diethylamino)carbonyl]phenyl]-1-(1,1-dimethylethyl)-3-ethyl-1H-pyrazole-4-carboxamide]
- pest or weed control at 62 g/ha (goosegrass; Eleusine indica, pre-emergence, 312 h, 62 g ai/ha, preemergence, scale 0 to 100, read-out: Plant response rating, Goosegrass): 0%
- pest or weed control at 125 g/ha (goosegrass; Eleusine indica, pre-emergence, 312 h, 125 g ai/ha, scale 0 (no effect) to 100 (complete control), visual, 12 to 14 days, read-out: Plant response rating, Goosegrass): 25%
- Goosegrass plant response rating (goosegrass; [9]): 80
- pest or weed control at 1000 g/ha (barnyardgrass; Echinochloa crus-galli, 336 h, visual rating, 13 to 15 days, read-out: Barnyardgrass plant response rating): 40%
- pest or weed control at 62 g/ha (common ragweed; Ambrosia artemisiifolia, pre-emergence, 62 g ai/ha, preemergence, scale 0 to 100, read-out: Plant response rating, Ragweed): 20%
- pest or weed control at 125 g/ha (common ragweed; Ambrosia artemisiifolia, pre-emergence, 125 g ai/ha, scale 0 (no effect) to 100 (complete control), visual, 12 to 14 days, read-out: Plant response rating, Ragweed): 20%
- Ragweed plant response rating (common ragweed; [10]): 65
- pest or weed control at 62 g/ha (yellow nutsedge; Cyperus, pre-emergence, 62 g ai/ha, preemergence, scale 0 to 100, read-out: Plant response rating, Nutsedge, Yellow): 0%
- pest or weed control at 125 g/ha (yellow nutsedge; Cyperus, pre-emergence, 125 g ai/ha, scale 0 (no effect) to 100 (complete control), visual, 12 to 14 days, read-out: Plant response rating, Nutsedge, Yellow): 0%
- Nutsedge, Yellow plant response rating (yellow nutsedge; 500 g ai/ha): 0
- pest or weed control at 62 g/ha (woolly cupgrass; Eriochloa villosa, pre-emergence, 312 h, 62 g ai/ha, preemergence, scale 0 to 100, read-out: Plant response rating, Cupgrass, Woolly): 0%
- pest or weed control at 125 g/ha (woolly cupgrass; Eriochloa villosa, pre-emergence, 312 h, 125 g ai/ha, scale 0 (no effect) to 100 (complete control), visual, 12 to 14 days, read-out: Plant response rating, Cupgrass, Woolly): 0%
- pest or weed control at 250 g/ha (woolly cupgrass; Eriochloa villosa, pre-emergence, 312 h, 250 g ai/ha, scale 0 to 100 (0 no effect, 100 complete control), visual, 12 to 14 days, read-out: Plant response rating, Cupgrass, Woolly): 0%
- Cupgrass, Woolly plant response rating (woolly cupgrass; [10]): 0
- pest or weed control at 125 g/ha (cocklebur; post-emergence, postemergence, 125 g ai/ha, visual rating, scale 0 (no effect) to 100 (complete control), read-out: Cocklebur plant response rating): 50%
- pest or weed control at 500 g/ha (cocklebur; post-emergence, postemergence, 500 g ai/ha, visual rating, scale 0 (no effect) to 100 (complete control), read-out: Cocklebur plant response rating): 60%
- pest or weed control at 125 g/ha (cocklebur; pre-emergence, 125 g ai/ha, 0 = no effect, 100 = complete control, read-out: Cocklebur plant response rating (0 to 100 scale)): 0%
- pest or weed control at 500 g/ha (cocklebur; pre-emergence, 500 g ai/ha, visual rating 0-100, 0 no effect, 100 complete control, read-out: Plant response rating, Cocklebur): 0%
- plant injury at 125 g/ha (rice; Oryza sativa, pre-emergence, 336 h, 125 g ai/ha, 0 = no effect, 100 = complete control, read-out: Rice plant response rating (0 to 100 scale)): 0%
- plant injury at 500 g/ha (rice; Oryza sativa, pre-emergence, 336 h, 500 g ai/ha, visual rating 0-100, 0 no effect, 100 complete control, read-out: Plant response rating, Rice): 50%
